Test results from ChEMBL document CHEMBL1770103, “Synthesis and biological evaluation of dibenz[b,f][1,5]oxazocine derivatives for agonist activity at κ-opioid receptor” (Eur J Med Chem, 2011).
Activity calls are given as the source filed them. No cut-off for these calls is given here.

Experiments:
[1] = target: Kappa-type opioid receptor (Mus musculus) (UniProt P33534); experiment: Displacement of [125I]dynorphin from kappa opioid receptor in BALB/c mouse brain membrane at 5 uM by liquid scintillation counting relative to control; type: cell membranes
Kappa-type opioid receptor (Mus musculus), sequence (P33534 whole entry): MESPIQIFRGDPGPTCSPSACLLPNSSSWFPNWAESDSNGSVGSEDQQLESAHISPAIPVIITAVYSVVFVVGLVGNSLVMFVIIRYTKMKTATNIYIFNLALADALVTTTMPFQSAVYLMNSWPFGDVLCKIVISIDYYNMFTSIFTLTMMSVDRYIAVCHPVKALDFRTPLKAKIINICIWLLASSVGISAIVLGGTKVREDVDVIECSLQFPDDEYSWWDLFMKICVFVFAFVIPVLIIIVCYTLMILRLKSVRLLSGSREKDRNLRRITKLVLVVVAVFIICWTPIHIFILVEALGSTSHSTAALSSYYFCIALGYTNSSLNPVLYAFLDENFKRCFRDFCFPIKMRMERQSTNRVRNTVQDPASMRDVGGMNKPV

[2] = target: Mu-type opioid receptor (Mus musculus) (UniProt P42866); conditions: BALB/c, Brain, Membrane, at 5 µM
Mu-type opioid receptor (Mus musculus), sequence (P42866 whole entry): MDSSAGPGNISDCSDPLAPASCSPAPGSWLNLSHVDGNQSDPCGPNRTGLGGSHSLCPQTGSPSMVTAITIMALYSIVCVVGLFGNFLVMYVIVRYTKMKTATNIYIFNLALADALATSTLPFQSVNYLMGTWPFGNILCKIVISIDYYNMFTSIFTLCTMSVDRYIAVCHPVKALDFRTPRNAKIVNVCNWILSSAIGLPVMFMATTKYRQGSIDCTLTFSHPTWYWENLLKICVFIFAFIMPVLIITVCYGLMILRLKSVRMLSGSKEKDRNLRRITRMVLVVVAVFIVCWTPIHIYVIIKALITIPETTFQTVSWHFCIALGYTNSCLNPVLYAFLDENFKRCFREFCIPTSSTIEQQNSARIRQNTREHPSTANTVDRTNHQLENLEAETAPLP
Description: Displacement of [3H]DAMGO from mu opioid receptor in BALB/c mouse brain membrane at 5 uM by liquid scintillation counting relative to control

[3] = target: Kappa-type opioid receptor (Rattus norvegicus) (UniProt P34975); experiment: Agonist activity at kappa opioid receptor in rat C6 cells assessed as induction of ERK1/2 phosphorylation at 40 uM after 10 min by Western blot analysis in presence of KOP antagonist norBNI; type: functional, cell-based
Kappa-type opioid receptor (Rattus norvegicus), sequence (P34975 whole entry): as the sequence (P33534 whole entry) above, with D11E, S17A, S51P, A308V counted along it

[4] = target: Kappa-type opioid receptor (Mus musculus, UniProt P33534); experiment: Displacement of [125I]dynorphin from kappa opioid receptor in BALB/c mouse brain membrane by liquid scintillation counting; type: cell membranes
Kappa-type opioid receptor, sequence (P33534 whole entry): as the sequence (P33534 whole entry) above

Compound	residual activity [1]	residual activity [2]	Activity [3]	IC50 [4]
COc1ccc(N2Cc3cccc(OC)c3OCc3cc4c(cc32)OCO4)cc1	101%	138%	–	–
COc1ccc2c(c1)COc1ccccc1CN2c1ccccc1	29%	99%	inactive	2170 nM
c1ccc(N2Cc3ccccc3OCc3ccccc32)cc1	87%	80%	–	–
COc1ccc(N2Cc3cccc(OC)c3OCc3ccccc32)cc1	81%	90%	–	–
COc1cccc2c1OCc1cc3c(cc1N(c1ccccc1)C2)OCO3	101%	78%	–	–
COc1ccccc1N1Cc2cccc(OC)c2OCc2ccccc21	119%	89%	–	–
COc1ccc(N2Cc3ccccc3OCc3ccccc32)cc1	81%	86%	–	–
